Experimental findings from patent US20220047718A1, “Nanoparticle-Based Therapy of Inflammatory Disorders” (priority 2018, published 2022) are described below.

Series [1] deals with Imiquimod (IMQ)-induced mouse model of psoriasis.
Procedure: (a) Experimental Scheme of three-day IMQ treatment with seven-day systemic therapy. (b) (upper panel) change in ear thickness between control (PBS; crosses), IMQ-treated (squares), and systemic MTX therapy receiving (1 mg/kg (upward triangles), 2 mg/kg (downward triangles), 5 mg/kg (diamonds)) animals. (Lower panels) statistical analysis of ear thickness differences between groups between days 4-7.
(a) (upper panel), change in ear thickness between control (PBS, crosses), IMQ-treated (squares), and systemic therapy receiving in addition to IMQ, 2 mg/kg MTX (upward triangles), GNPs containing 5.5 mg/kg Au (downward triangles), and MTX-GNP containing 2 mg/kg MTX and 5.5 mg/kg Au (diamonds). (Lower panels) statistical analysis of ear thickness differences between groups between days 4-7. […] Data is pooled from 2-3 independent experiments, 2 to 5 mice per condition and represented as mean±standard deviation.
Clinical efficacy and in vivo tolerability were assessed against relevant controls for both systemic (subcutaneous injection) and topical administration.
First, we evaluated tolerance of mice to MTX with a dose escalation setup (FIG. 2b).
A short description of series [2]: Formulation into Carbopol 980 gel: precipitation / homogeneity. The format is physicochemical. Conditions: for precipitation / homogeneity in 2% Carbopol 980 gel: Carbopol 980 adjusted to pH 7.4 prior to addition. As to the method: Gels were prepared by dispersing 1-3% w/v of Carbopol polymer (w/v) into purified water with constant mixing and thus allowed to hydrate for 5 hours. Care was taken to avoid air entrapment by agitating the solution slowly on a rocker during preparation of the gel. After 5 hours, the pH of the gel was adjusted to pH 7.4 using triethylamine (Sigma-Aldrich, Lot #STBF616V) to neutralise the pH and turn the solution into a gel (triethanolamine is contemplated herein as a suitable alternative to triethylamine).
For production of methotrexate-GNP hydrogel, 2% w/v Carbopol®980 was initially dispersed for 5 hours with constant mixing. […] Plain methotrexate drug gel was prepared by dissolving MTX-PEG3-NH2 in water and adjusting the pH to pH 4.5. The MTX-PEG3-NH2 solution was added to the previously made 2% Carbopol®980 solution.
The method for formulating gold nanoparticles into Carbopol®980 gels was optimised by testing the effects of pH and speed of addition of nanoparticles using control [α-Gal][PEG8COOH]@Au GNPs. […] The gels were all stored at 4° C.
For production of methotrexate-GNP hydrogel, 2% w/v Carbopol®980 was dispersed for 5 hours with constant mixing. The pH of the Carbopol®980 solution was adjusted to pH 7.4 to produce a clear gel. […] Plain methotrexate drug gel was prepared by adding MTX-PEG3-NH2 dissolved in water to the pH 7.4 adjusted Carbopol®980 gel (2%).

Turning to `CN(Cc1cnc2nc(N)nc(N)c2n1)c1ccc(C(=O)N[C@@H](CCC(=O)O)C(=O)O)cc1` [MTX, Methotrexate], in series [1] (mouse, in vivo), the animal wellbeing result is listed as “irrevocably impaired animal wellbeing”. For the same compound, the “tolerability / systemic toxicity (liver enzyme measurements, daily weight monitoring)” value in series [1] (mouse, in vivo, sc, 2 mg/kg) is on record as “tolerable”. Further, the “IMQ-induced inflammation (ear thickness)” value in series [1] (systemic (subcutaneous), 2 mg/kg MTX daily) is reported as “no significant inflammation control”. The “ear thickness / inflammation control” value in series [1] (systemic MTX 5 mg/kg daily) is reported as “clinically effective”.

`CN(Cc1cnc2nc(N)nc(N)c2n1)c1ccc(C(=O)NC(CCC(=O)NCCCOCCOCCOCCCN)C(=O)O)cc1` (stereo not shown) [MTX-PEG3-NH2, 4-[(3-{2-[2-(3-aminopropoxy)ethoxy]ethoxy}propyl)carbamoyl]-2-[(4-{[(2,4-diaminopteridin-6-yl)methyl](methyl)amino}phenyl)formamido]butanoic acid]: the results for the “precipitation / homogeneity in 2% Carbopol 980 gel” value in series [2] and in series [2] (listed as modified methotrexate) were “no precipitation” and “without precipitation”, respectively. Also, the “precipitation on addition to 2% Carbopol 980 solution” value in series [2] (acidic addition (GNPs pH 2.6; MTX-PEG3-NH2 pH 4.5), Carbopol not neutralised) is “small level of yellow precipitation”.
